Results reported in ChEMBL document CHEMBL3992552, “Mechanisms of action and structure-activity relationships of cytotoxic flavokawain derivatives” (Bioorg Med Chem, 2017).
Calls of active or inactive are those of the source. The calls are words filed in the database; no cut-off is given here.

Experiments:
NCI-H727 [1] = assay: Cell cycle arrest in human NCI-H727 cells assessed as accumulation at G1/S phase by Hoechst staining based fluorescence assay; assay type: functional
HCT-116 [2] = assay: Cytotoxicity against human HCT116 cells assessed as cell viability after 48 hrs by Hoechst 33342 staining based assay; assay type: functional; conditions: HCT-116, 48 h
HaCaT = assay: Cell cycle arrest in human HaCaT cells harboring […] p53 assessed as accumulation at S phase at 10 uM measured after 48 hrs by Hoechst/BrdU staining based fluorescence assay (reference value: 52.3%); assay type: functional
[3] = Selectivity index, ratio of IC50 for human fibroblasts to IC50 for human NCI-H727 cells
[4] = Selectivity index, ratio of IC50 for human fibroblasts to IC50 for human HuH7 cells
[5] = Selectivity index, ratio of IC50 for human fibroblasts to IC50 for human Caco2 cells
PC-3 [6] = assay: Cell cycle arrest in human PC3 cells harboring p53 mutant assessed as mitotic index at 25 uM measured after 48 hrs by Hoechst staining based fluorescence assay (reference value: 2.5); assay type: functional
RL = assay: Cytotoxicity against human RL assessed as cell viability after 48 hrs by Hoechst 33342 staining based assay; assay type: functional
HCT-116 [7] = assay: Induction of apoptosis in human HCT116 cells harboring wild-type p53 assessed as increase in late apoptosis at 2 times IC50 after 48 hrs by YoPro/propidium iodide/Hoechst staining based assay; assay type: functional, cell-based
PC-3 [8] = assay: Induction of apoptosis in human PC3 cells harboring p53 mutant assessed as increase in late apoptosis at 2 times IC50 after 48 hrs by YoPro/propidium iodide/Hoechst staining based assay; assay type: functional, cell-based
NCI-H727 [9] = assay: Cytotoxicity against human NCI-H727 cells assessed as cell viability after 48 hrs by Hoechst 33342 staining based assay; assay type: functional; conditions: NCI-H727, 48 h
HCT-116 [10] = assay: Induction of apoptosis in human HCT116 cells harboring wild-type p53 assessed as increase in early apoptosis at 2 times IC50 after 48 hrs by YoPro/propidium iodide/Hoechst staining based assay; assay type: functional, cell-based
Caco-2 [11] = assay: Cytotoxicity against human Caco2 cells assessed as cell survival at 50 uM after 48 hrs by Hoechst 33342 staining based assay relative to control; assay type: functional; conditions: Caco-2, 48 h, read-out: Survival
[12] = Selectivity index, ratio of IC50 for human fibroblasts to IC50 for human MCF7 cells
PC-3 [13] = assay: Induction of apoptosis in human PC3 cells harboring p53 mutant assessed as increase in cleaved caspase3 at 2 times IC50 after 48 hrs by Hoechst staining based assay; assay type: functional, cell-based
NCI-H727 [14] = assay: Cell cycle arrest in human NCI-H727 cells harboring p53 mutant assessed as accumulation at S phase at 10 uM measured after 48 hrs by Hoechst/BrdU staining based fluorescence assay (reference value: 40.3%); assay type: functional
Huh-7 [15] = assay: Cell cycle arrest in human HuH7 cells assessed as accumulation at S phase at 25 uM measured after 48 hrs by Hoechst/BrdU staining based fluorescence assay (reference value: 44%); assay type: functional
MDA-MB-231 [16] = assay: Cell cycle arrest in human MDA-MB-231 cells assessed as accumulation at M phase by Hoechst staining based fluorescence assay; assay type: functional
PC-3 [17] = assay: Cell cycle arrest in human PC3 cells harboring p53 mutant assessed as accumulation at S phase at 10 uM measured after 48 hrs by Hoechst/BrdU staining based fluorescence assay (reference value: 40.8%); assay type: functional
PC-3 [18] = assay: Induction of apoptosis in human PC3 cells harboring p53 mutant assessed as upregulation of cyclinB1 after 48 hrs by Hoechst staining based assay; assay type: functional, cell-based
[19] = Selectivity index, ratio of IC50 for human fibroblasts to IC50 for human HaCaT cells
Caco-2 [20] = assay: Cell cycle arrest in human Caco2 cells assessed as accumulation at M phase by Hoechst staining based fluorescence assay; assay type: functional
NCI-H727 [21] = assay: Cell cycle arrest in human NCI-H727 cells harboring p53 mutant assessed as mitotic index at 10 uM measured after 48 hrs by Hoechst staining based fluorescence assay (reference value: 1.1); assay type: functional
HCT-116 [22] = assay: Induction of apoptosis in human HCT116 cells harboring wild-type p53 assessed as upregulation of p21 measured after 48 hrs by Hoechst staining based fluorescence assay; assay type: functional, cell-based
[23] = Selectivity index, ratio of IC50 for human fibroblasts to IC50 for human MDA-MB-231 cells
HCT-116 [24] = assay: Cell cycle arrest in human HCT116 cells harboring wild-type p53 assessed as mitotic index at 25 uM measured after 48 hrs by Hoechst staining based fluorescence assay (reference value: 2.3); assay type: functional
NCI-H727 [25] = assay: Cell cycle arrest in human NCI-H727 cells harboring p53 mutant assessed as mitotic index at 25 uM measured after 48 hrs by Hoechst staining based fluorescence assay (reference value: 1.1); assay type: functional
MDA-MB-231 [26] = assay: Induction of apoptosis in human MDA-MB-231 cells harboring p53 mutant assessed as increase in early apoptosis at 2 times IC50 after 24 hrs by YoPro/propidium iodide/Hoechst staining based assay; assay type: functional, cell-based
NCI-H727 [27] = assay: Cytotoxicity against human NCI-H727 cells assessed as cell survival at 50 uM after 48 hrs by Hoechst 33342 staining based assay relative to control; assay type: functional; conditions: NCI-H727, 48 h, read-out: Survival
MDA-MB-231 [28] = assay: Induction of apoptosis in human MDA-MB-231 cells harboring p53 mutant assessed as increase in cleaved caspase3 at 2 times IC50 after 24 hrs by Hoechst staining based assay; assay type: functional, cell-based
PC-3 [29] = assay: Cell cycle arrest in human PC3 cells assessed as accumulation at M phase by Hoechst staining based fluorescence assay; assay type: functional
Fibroblast = assay: Cytotoxicity against human fibroblasts assessed as cell viability after 48 hrs by Hoechst 33342 staining based assay
Huh-7 [30] = assay: Cell cycle arrest in human HuH7 cells assessed as mitotic index at 25 uM measured after 48 hrs by Hoechst staining based fluorescence assay (reference value: 2.2); assay type: functional
HCT-116 [31] = assay: Induction of apoptosis in human HCT116 cells harboring wild-type p53 assessed as upregulation of cyclinB1 measured after 48 hrs by Hoechst staining based assay; assay type: functional, cell-based
MCF7 = assay: Induction of apoptosis in human MCF7 cells harboring wild-type p53 assessed as upregulation of cyclinB1 measured after 18 hrs by Hoechst staining based assay; assay type: functional, cell-based
MDA-MB-231 [32] = assay: Cell cycle arrest in human MDA-MB-231 cells harboring p53 mutant assessed as accumulation at S phase at 10 uM measured after 48 hrs by Hoechst/BrdU staining based fluorescence assay (reference value: 42.2%); assay type: functional
MDA-MB-231 [33] = assay: Cell cycle arrest in human MDA-MB-231 cells harboring p53 mutant assessed as mitotic index at 10 uM measured after 48 hrs by Hoechst staining based fluorescence assay (reference value: 2.1); assay type: functional
MDA-MB-231 [34] = assay: Cell cycle arrest in human MDA-MB-231 cells harboring p53 mutant assessed as accumulation at S phase at 25 uM measured after 48 hrs by Hoechst/BrdU staining based fluorescence assay (reference value: 42.2%); assay type: functional
[35] = Selectivity index, ratio of IC50 for human fibroblasts to IC50 for human RL cells
MDA-MB-231 [36] = assay: Cell cycle arrest in human MDA-MB-231 cells harboring p53 mutant assessed as mitotic index at 25 uM measured after 48 hrs by Hoechst staining based fluorescence assay (reference value: 2.1); assay type: functional

Compound	Activity (NCI-H727 [1])	IC50 (HCT-116 [2]) [µM]	Activity (HaCaT) [%]	Ratio IC50 [3]	Ratio IC50 [4]	Ratio IC50 [5]	Activity_index (PC-3 [6])	IC50 (RL) [µM]	Activity (HCT-116 [7])	Activity (PC-3 [8])	IC50 (NCI-H727 [9]) [µM]	Activity (HCT-116 [10])	viability at 50 µM (Caco-2 [11]) [%]	Ratio IC50 [12]	Activity (PC-3 [13])	Activity (NCI-H727 [14]) [%]	Activity (Huh-7 [15]) [%]	Activity (MDA-MB-231 [16])	Activity (PC-3 [17]) [%]	Activity (PC-3 [18])	other results
COc1cc(OC)c(C(=O)/C=C/c2ccc(F)cc2)c(OC)c1	Active	6.2	20	>9.1	>3.4	>9.1	0.4	6.4	Active	Active	5.5	Active	3	>6.5	Active	31	1.1	Active	27	Active	Ratio IC50 [19]: >6.6; Activity (Caco-2 [20]): Active; Activity_index (NCI-H727 [21]): 1.1; Activity (HCT-116 [22]): Active; Ratio IC50 [23]: >4.7; Activity_index (HCT-116 [24]): 0.4; Activity_index (NCI-H727 [25]): 0.4; Activity (MDA-MB-231 [26]): Active; viability at 50 µM (NCI-H727 [27]): 4%; Activity (MDA-MB-231 [28]): Active; Activity (PC-3 [29]): Active; IC50 (Fibroblast): > 20 µM; Activity_index (Huh-7 [30]): 1.3; Activity (HCT-116 [31]): Active; Activity (MCF7): Active; Activity (MDA-MB-231 [32]): 43%; Activity_index (MDA-MB-231 [33]): 22; Activity (MDA-MB-231 [34]): 10%; Ratio IC50 [35]: >7.8; Activity_index (MDA-MB-231 [36]): 4.8
COc1cc(OC)c(C(=O)/C=C/c2ccc(Br)cc2)c(OC)c1	Active	6.2	24	>4.4	>3.6	>7.4	0	8.3	Active	Active	11.3	Active	0	>5.3	Active	39	0.2	Active	35	Active	Ratio IC50 [19]: >5.6; Activity (Caco-2 [20]): Active; Activity_index (NCI-H727 [21]): 1; Activity (HCT-116 [22]): Active; Ratio IC50 [23]: >4.5; Activity_index (HCT-116 [24]): 0.6; Activity_index (NCI-H727 [25]): 0.7; Activity (MDA-MB-231 [26]): Active; viability at 50 µM (NCI-H727 [27]): 2%; Activity (MDA-MB-231 [28]): Active; Activity (PC-3 [29]): Active; IC50 (Fibroblast): > 20 µM; Activity_index (Huh-7 [30]): 0.1; Activity (HCT-116 [31]): Active; Activity (MCF7): Active; Activity (MDA-MB-231 [32]): 42%; Activity_index (MDA-MB-231 [33]): 15; Activity (MDA-MB-231 [34]): 44%; Ratio IC50 [35]: >6; Activity_index (MDA-MB-231 [36]): 3.4
COc1cccc(/C=C/C(=O)c2c(OC)cc(OC)cc2OC)c1	Active	4.3	19	>6.1	>5.6	>12.8	0.3	5.9	Active	Active	8.2	Active	2	>5.3	Active	37	0.3	Active	23	Active	Ratio IC50 [19]: >9.4; Activity (Caco-2 [20]): Active; Activity_index (NCI-H727 [21]): 1.7; Activity (HCT-116 [22]): Active; Ratio IC50 [23]: >5.7; Activity_index (HCT-116 [24]): 1.2; Activity_index (NCI-H727 [25]): 0.1; Activity (MDA-MB-231 [26]): Active; viability at 50 µM (NCI-H727 [27]): 1%; Activity (MDA-MB-231 [28]): Active; Activity (PC-3 [29]): Active; IC50 (Fibroblast): > 20 µM; Activity_index (Huh-7 [30]): 1; Activity (HCT-116 [31]): Active; Activity (MCF7): Active; Activity (MDA-MB-231 [32]): 43%; Activity_index (MDA-MB-231 [33]): 25; Activity (MDA-MB-231 [34]): 12%; Ratio IC50 [35]: >8.5; Activity_index (MDA-MB-231 [36]): 3.5
